Columns and labels:
Type in all cases: physicochemical
[1] = Absorption and photoluminescence (quantum yield, lifetime, q); set-up: λabs(max): unit not given here; settings: for R, I(5D0 → 7F2)/I(5D0 → 7F1): asymmetry ratio, 10 in MeOH; for R, I(5D0 → 7F2)/I(5D0 → 7F1) / λabs(max): room temperature, 11 in DMSO; for q (Parker's) / q (Horrocks'): from lifetimes in H2O and D2O; for q (Parker's): first value of cell; for q (Horrocks'): second value of cell; for ΦEuEu (%): intrinsic quantum yield, calculated value; for τD2O/MeOD / τH2O/MeOH: luminescence lifetime, 5D0 → 7F2 transition; for τD2O/MeOD: D2O (MeOD for 10); for τH2O/MeOH: H2O (MeOH for 10); for ΦDMSO (%): luminescence quantum yield in DMSO; for ΦH2O/MeOH (%): luminescence quantum yield relative to quinine sulfate in 0.1M H2SO4, H2O (MeOH for 10, insoluble in H2O); for ΦHEPES (%): luminescence quantum yield, 0.1M HEPES buffer, pH 7.4; for λabs(max): 10 measured in MeOH; for ηsens (%): sensitization efficiency, calculated according to ref 61
Procedure: (§1) Absorption spectra of complexes were measured with HP UV-8453 spectrophotometer. Steady-state room temperature photoluminescence measurements were performed with an Edinburgh Instrument FLSP920 spectrophotometer equipped with a Xe900 continuous xenon lamp, μF920 microsecond flash lamp and a single photon counting photomultiplier tube. Spectra were corrected with the bundled F900 software. Solution-state measurements were conducted using quartz curettes of 10 mm path length. CPL measurements were conducted on a custom built spectrometer^63 (in Durham University) consisting of a laser driven light source (Energetiq EQ-99 LDLS, spectral range 170 to 2100 nm) coupled to an Acton SP2150 monochromator (600 g/nm, 300 nm Blaze) that allows excitation wavelengths to be selected with a 6 nm FWHM band-pass. The collection of the emitted light was facilitated (90° angle set up, 1 cm path length quartz curette) by a Lock-In Amplifier (Hinds Instruments Signaloc 2100) and Photoelastic Modulator (Hinds Instruments PEM-90). The differentiated light was focused onto an Acton SP2150 monochromator (1200 g/nm, 500 nm Blaze) equipped with a high sensitivity cooled Photo Multiplier Tube (H10723-20 Extended red-multialkali PMT based photosensor (5V)). Spectra were recorded using a 5 spectral average sequence in the range of 570-720 nm with 0.5 nm spectral intervals and 500 μs integration time. The recorded CPL spectrum underwent a 25% Fourier transformation smoothening protocol using Origin 8.0 Software (Origin Labs) to enhance appearance (all calculations were carried out using raw spectral data).
The shift in absorption is caused by electronic communication between the electropositive lanthanide center and the chromophore. […] These are not observed for 11, however, as we believe the steric effect of the planar phenyl ring of the benzyl group could not be alleviated by appropriate rotation, whereas that of the isobutyl group could.
The luminescence quantum yields of the complexes are decent in water and HEPES solution, although they are much higher in DMSO, due to the nonradiative quenching by O—H oscillators of water molecules in the second coordination sphere (Table 6). The intrinsic quantum yields^61—a calculated value evaluating the quantum yield of Eu(III) via direct metal excitation—of the complexes are calculated, and, as expected, the values are very similar, except for 10. The higher value corroborates with the shift in absorption maximum, for which we believe the reason is due to a shorter europium—chromophore distance and better interaction. On the other hand, the sensitization efficiencies of the complexes vary. […] The relatively remarkable ηsens of 13 is attributed to its structural rigidity, as both the tetraaza backbone and the acetate arms are modified with a chrial substituent, i.e., double chirality. The double chirality is also attributed for the increase in luminescence quantum yield compared to that of 12a/12b.

[2] = Circularly polarized luminescence (CPL), dissymmetry factor glum; settings: for glum ΔJ = 1 (λ) DMSO / glum ΔJ = 3 (λ) DMSO / glum ΔJ = 3 (λ) H2O / glum ΔJ = 1 (λ) H2O: wavelength in parentheses in the cell
Procedure: as §1, with “Steady-state” for “Absorption spectra of complexes were measured with HP UV-8453 spectrophotometer. Steady-state”, “time.” for “time. The recorded CPL spectrum underwent a 25% Fourier transformation smoothening protocol using Origin 8.0 Software (Origin Labs) to enhance appearance (all calculations were carried out using raw spectral data).”

[3] = Relaxivity (r1, r2) measurement of Gd(III) complexes in water, BSA and human plasma; set-up: r1 Human Plasma (1.5 T): unit not given beside the values; settings: 1.5 T, 37° C.
Procedure: This is very important because the huge difference in the inner-sphere coordinated water exchange rate between the two isomers is a key factor for applications, for example, as MRI contrast agents. To show their potential value, the two diastereomers of [GdL2]^− ([GdL2A]^− and [GdL2B]^−) were separated and their relaxivities were measured. The relaxivities of [GdL1]^−, [GdL2]^−, [GdL2A]^−, [GdL2B]^− and [GdDOTA]^− in water at different magnetic strengths (1.5 T and 11.7 T) were compared, with or without the presence of BSA and human plasma (1.5 T) (Table 1). It is clearly seen that the complexes of [GdL1]^−, [GdL2A]^− and [GdL2B]^− have relaxivity properties similar to that of the [GdDOTA]^− complex.

Structure (SMILES)	R, I(5D0 → 7F2)/I(5D0 → 7F1) [1]	q (Parker's) [1]	q (Horrocks') [1]	ΦEuEu (%) [1]	τD2O/MeOD [1]	τH2O/MeOH [1]	ΦDMSO (%) [1]	ΦH2O/MeOH (%) [1]	ΦHEPES (%) [1]	λabs(max) [1]	ηsens (%) [1]	r1 4.5 w/v BSA (1.5 T) [3]	r1 Human Plasma (1.5 T) [3]	r1 Water (1.5 T) [3]	also measured
CCC1CN(C(C)C(=O)[O-])C(CC)CN(C(C)C(=O)[O-])C(CC)CN(C(C)C(=O)[O-])C(CC)CN1Cc1cc(C#Cc2c(OC)cc(OC)cc2OC)cc(P(C)(=O)[O-])n1.[Eu+3] (centres unmarked) [Complex 13]	2.66	0.00	0.06	30.2%	1.83 ms	1.25 ms	49.7%	21.9%	20.9%	356	72.6%	–	–	–	glum ΔJ = 1 (λ) DMSO [2]: −0.17 (588); glum ΔJ = 3 (λ) DMSO [2]: −0.29 (657); glum ΔJ = 3 (λ) H2O [2]: −0.33 (652); absolute glum 589 nm ([2]; aqueous solution): 0.23
CC[C@H]1CN(CC(=O)[O-])[C@@H](CC)CN(CC(=O)[O-])[C@@H](CC)CN(CC(=O)[O-])[C@@H](CC)CN1CC(=O)[O-].[Gd+3] (single isomer, unassigned) [[GdL2A]^−]	–	–	–	–	–	–	–	–	–	–	–	3.9	2.9	3.0	–
COc1cc(OC)c(C#Cc2cc(CN3CCN(C(C)C(=O)[O-])CCN(C(C)C(=O)[O-])CCN(C(C)C(=O)[O-])CC3)nc(P(C)(=O)[O-])c2)c(OC)c1.[Eu+3] (single isomer, unassigned) [Complex 12b]	–	–	–	–	–	–	–	–	–	–	–	–	–	–	R, I(5D0 → 7F2)/I(5D0 → 7F1) ([1]; listed as 12b): 2.41; q (Parker's) ([1]; listed as 12b): 0.11; q (Horrocks') ([1]; listed as 12b): 0.03; ΦEuEu (%) ([1]; listed as 12b): 24.9%; τD2O/MeOD ([1]; listed as 12b): 1.77 ms; τH2O/MeOH ([1]; listed as 12b): 1.04 ms; ΦDMSO (%) ([1]; listed as 12b): 44.1%; ΦH2O/MeOH (%) ([1]; listed as 12b): 10.2%; ΦHEPES (%) ([1]; listed as 12b): 9.8%; λabs(max) ([1]; listed as 12b): 355; ηsens (%) ([1]; listed as 12b): 41.0%; glum ΔJ = 1 (λ) DMSO ([2]; listed as 12b): −0.11 (591); glum ΔJ = 3 (λ) DMSO ([2]; listed as 12b): −0.10 (653); glum ΔJ = 1 (λ) H2O ([2]; listed as 12b): −0.04 (591); glum ΔJ = 3 (λ) H2O ([2]; listed as 12b): −0.11 (653)
COc1cc(OC)c(C#Cc2cc(CN3CCN(CC(=O)[O-])CCN(CC(=O)[O-])CCN(CC(=O)[O-])CC3)nc(P(C)(=O)[O-])c2)c(OC)c1.[Eu+3] [Complex 7]	2.52	0.06	0.01	23.6%	1.44 ms	1.01 ms	47.0%	7.6%	6.9%	353	32.3%	–	–	–	–
CC[C@H]1CN(CC(=O)[O-])[C@@H](CC)CN(Cc2cc(C#Cc3c(OC)cc(OC)cc3OC)cc(P(C)(=O)[O-])n2)[C@@H](CC)CN(CC(=O)[O-])[C@@H](CC)CN1CC(=O)[O-].[Eu+3] [Complex 8]	2.43	0.10	0.02	26.0%	1.76 ms	1.12 ms	50.0%	14.0%	14.0%	356	53.8%	–	–	–	glum ΔJ = 1 (λ) DMSO [2]: −0.18 (591); glum ΔJ = 3 (λ) DMSO [2]: +0.17 (657); glum ΔJ = 1 (λ) H2O [2]: −0.11 (591); glum ΔJ = 3 (λ) H2O [2]: −0.28 (653)
CC[C@H]1CN(CC(=O)[O-])[C@@H](CC)CN(CC(=O)[O-])[C@@H](CC)CN(CC(=O)[O-])[C@@H](CC)CN1CC(=O)[O-].[Gd+3] (single isomer, unassigned) [[GdL2B]^−]	–	–	–	–	–	–	–	–	–	–	–	3.6	3.5	3.0	–
O=C([O-])CN1CCN(CC(=O)[O-])CCN(CC(=O)[O-])CCN(CC(=O)[O-])CC1.[Gd+3] [[GdDOTA]^−, reference compound]	–	–	–	–	–	–	–	–	–	–	–	4.1	4.0	3.2	–
COc1cc(OC)c(C#Cc2cc(CN3CCN(C(C)C(=O)[O-])CCN(C(C)C(=O)[O-])CCN(C(C)C(=O)[O-])CC3)nc(P(C)(=O)[O-])c2)c(OC)c1.[Eu+3] (single isomer, unassigned) [Complex 12a]	–	–	–	–	–	–	–	–	–	–	–	–	–	–	R, I(5D0 → 7F2)/I(5D0 → 7F1) ([1]; listed as 12a): 2.74; q (Parker's) ([1]; listed as 12a): 0.07; q (Horrocks') ([1]; listed as 12a): 0.01; ΦEuEu (%) ([1]; listed as 12a): 26.6%; τD2O/MeOD ([1]; listed as 12a): 1.70 ms; τH2O/MeOH ([1]; listed as 12a): 1.12 ms; ΦDMSO (%) ([1]; listed as 12a): 46.4%; ΦH2O/MeOH (%) ([1]; listed as 12a): 12.7%; ΦHEPES (%) ([1]; listed as 12a): 12.4%; λabs(max) ([1]; listed as 12a): 352; ηsens (%) ([1]; listed as 12a): 47.0%; glum ΔJ = 1 (λ) DMSO ([2]; listed as 12a): −0.04 (591); glum ΔJ = 3 (λ) DMSO ([2]; listed as 12a): −0.04 (657); glum ΔJ = 1 (λ) H2O ([2]; listed as 12a): −0.03 (588); glum ΔJ = 3 (λ) H2O ([2]; listed as 12a): −0.05 (653)

From patent US11357873B2, “Chiral cyclen compounds and their uses” (THE HONG KONG POLYTECHNIC UNIVERSITY, priority 2016, dated 2022)
